Patent US7745446B2, “Pyrazolo[1,5-c]pyrimidines” (Bayer Schering Pharma Aktiengesellschaft, priority 2004, dated 2010)

What was measured:
GST-ΔPH-Akt1 = target: T1, GST-ΔPH-Akt1 (Homo sapiens, UniProt P31749); assay: Biochemical ΔPH Akt1 assay (flashplate, 33P incorporation into histone 2B); conditions: 100 nM ATP, histone 2B substrate; read-out: ΔPHAkt1 inhibition: IC50
T1 construct: named GST-deltaPH-Akt1; 107-480aa; cloned in the pAcGl vector; GST (N); made in house; host or cells: SF9 insect cells (baculovirus vector pAcG1), co-expressed with PDK1
Procedure, shortened: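 The enzyme was GST-fused human Akt1 lacking the PH domain (aa 107–480), co-expressed with PDK1 in Sf9 cells, at 100 ng/well, with 100 ng/well histone 2B substrate and 100 nM ATP including 33P-ATP. 33P incorporation was counted on scintillant-coated flashplates.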

MDA-MB-468 cells = assay: Cellular proliferation/cytotoxicity assay (Alamar Blue), MDA-MB-468; conditions: Homo sapiens, MDA-MB-468, 48 h, read-out: Anti-proliferative/cytotoxic activity: IC50 MDA468
Protocol: The anti-proliferative activity of the compounds as described herein, is evaluated using MCF7 and MDA-MB-468 (ATCC HTB-22 and HTB-132) cell lines and the Alamar Blue (Resazurin) cell viability assay (O'Brien et al. Eur J Biochem 267, 5421-5426, 2000). Resazurin is reduced to the fluorescent resorufin by cellular dehydrogenase activity, correlating with viable, proliferating cells. Test compounds are dissolved as 10 mM solutions in DMSO and subsequently diluted. MCF7 or MDA-MB-434 cells were seeded into 96 well flat bottom plates at a density of 10000 cells/well (MCF7) or 5000 cells/well (MDA-MB-468) in a volume of 200 μl/well. 24 hours after seeding, 1 μl each of the compound dilutions are added into each well of the 96 well plates. Each compound dilution is tested as at least as duplicates. Wells containing untreated control cells were filled with 200 μl DMEM containing 0.5% v:v DMSO. The cells are then incubated with the substances for 48 hours at 37° C. in a humidified atmosphere containing 5% carbon dioxide. To determine cell viability, 20 μl of a Resazurin solution (Sigma; 90 mg/l) are added. After 4 hours incubation at 37° C. the fluorescence is measured at an extinction of 544 nm and an emission of 590 nm (Wallac Victor2; Perkin Elmer, USA). For the calculation of the cell viability the emission value from untreated cells is set as 100% viability and the emission rates of treated cells are set in relation to the values of untreated cells. Viabilities are expressed as % values. The corresponding IC50 values of the compounds for cytotoxic activity are determined from the concentration-effect curves by means of non-linear regression. The analysis of the data is performed using a biostatistical program (GraphPad Prism, USA).

PKA = target: T2, PKA (Homo sapiens, UniProt P17612); assay: Biochemical PKA assay (flashplate); conditions: 100 nM ATP; read-out: PKA inhibition: −log IC50 (converted)
T2 construct: His; purchased PanVera, USA #R3791; host or cells: E. coli
Procedure, shortened: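 His-tagged human recombinant PKA catalytic subunit (E. coli), 1 ng/well, with 0.5 μM PKA peptide and 100 nM ATP including ^33P-ATP. Buffer […] pH7,5, 3 mM MgCl2, 3 mM MnCl2, Na-orthovanadate, 1 mM DTT; 80 min at 22° C. Stopped with H3PO4, scintillation flashplate counting, IC50 derived.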

T1 sequence (P31749 107-480, stated change not applied): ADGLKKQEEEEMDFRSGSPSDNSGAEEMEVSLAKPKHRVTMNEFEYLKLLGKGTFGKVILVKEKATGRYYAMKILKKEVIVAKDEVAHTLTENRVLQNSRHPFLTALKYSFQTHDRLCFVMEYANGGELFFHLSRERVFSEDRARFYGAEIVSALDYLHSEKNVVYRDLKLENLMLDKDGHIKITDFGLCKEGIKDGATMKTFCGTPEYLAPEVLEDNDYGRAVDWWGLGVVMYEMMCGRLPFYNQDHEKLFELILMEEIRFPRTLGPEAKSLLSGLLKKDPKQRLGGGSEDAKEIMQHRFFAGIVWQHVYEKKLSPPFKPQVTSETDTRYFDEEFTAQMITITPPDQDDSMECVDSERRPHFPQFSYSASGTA

IC50 (GST-ΔPH-Akt1)	IC50 (PKA)	Compound	IC50 (MDA-MB-468 cells)
≤ 1.75 µM	–	COc1cccc(-c2ccc(-c3cc4c(Br)cnn4c(Nc4ccc(NC(=O)c5ccc(CN)cc5)cc4)n3)cc2)c1 [Example 87, 4-Aminomethyl-N-{4-[3-bromo-5-(3′-methoxy-biphenyl-4-yl)-pyrazolo[1,5-c]pyrimidin-7-ylamino]-phenyl}-benzamide]	≤ 13.6 µM
≤ 1.75 µM	6.31 to 100 µM	COc1cccc(-c2ccc(-c3cc4ccnn4c(Nc4ccc(NC(=O)c5ccc(CN)cc5)cc4)n3)cc2)c1 [Example 59, 4-Aminomethyl-N-{4-[5-(3′-methoxy-biphenyl-4-yl)-pyrazolo[1,5-c]pyrimidin-7-ylamino]-phenyl}-benzamide]	≤ 13.6 µM
≤ 1.75 µM	6.31 to 100 µM	O=C(Nc1cccc(Nc2nc(-c3cccc4c3oc3ccccc34)cc3ccnn23)c1)c1ccc2c(c1)CCNC2 [Example 63, 1,2,3,4-Tetrahydro-isoquinoline-6-carboxylic acid [3-(5-dibenzofuran-4-yl-pyrazolo[1,5-c]pyrimidin-7-ylamino)-phenyl]-amide]	≤ 13.6 µM
≤ 1.75 µM	–	NCCCC(=O)Nc1ccc(Nc2nc(-c3cccc4c3oc3ccccc34)cc3ccnn23)cc1 [Example 24, 4-Amino-N-[4-(5-dibenzofuran-4-yl-pyrazolo[1,5-c]pyrimidin-7-ylamino)-phenyl]-butyramide]	≤ 13.6 µM
